Assay results as given in ChEMBL document CHEMBL1201862, “PubChem BioAssay data set” (2004).
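All cell lines were grown in 96-well plates and treated with compound for 48 hours. Abbreviation: GI50, concentration required for 50% inhibition of growth.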 Calls of active or inactive are those of the source. Cut-off read from the data, not from the text of the source: active = GI50 up to about 1.1 µM and inactive = higher.

Experiments:
Assay in all cases: NCI-60 cell line screen, 48 h
[1] = tested on: HCC 2998
[2] = tested on: BT-549
[3] = tested on: HOP-62
[4] = tested on: ACHN
[5] = tested on: OVCAR-4
[6] = tested on: OVCAR-8
[7] = tested on: HOP-92
[8] = tested on: MOLT-4
[9] = tested on: NCI-H23
[10] = tested on: OVCAR-3
[11] = tested on: HCT-116
[12] = tested on: SF-295
[13] = tested on: A498
[14] = tested on: COLO 205
[15] = tested on: 786-0
[16] = tested on: SK-MEL-5
[17] = tested on: SF-539
[18] = tested on: SN12C
[19] = tested on: Hs-578T
[20] = tested on: SNB-19

Compound	GI50 [1]	GI50 [2]	GI50 [3]	GI50 [4]	GI50 [5]	GI50 [6]	GI50 [7]	GI50 [8]	GI50 [9]	GI50 [10]	GI50 [11]	GI50 [12]	GI50 [13]	GI50 [14]	GI50 [15]	GI50 [16]	GI50 [17]	GI50 [18]	GI50 [19]	GI50 [20]
O=[N+]([O-])c1ccc(CSc2nn(Cc3ccc([N+](=O)[O-])cc3)cc3ncnc2-3)cc1	35.6 µM (inactive)	21 µM (inactive)	31.8 µM (inactive)	27.5 µM (inactive)	52.5 µM (inactive)	33.2 µM (inactive)	0.361 µM (active)	23.5 µM (inactive)	26.4 µM (inactive)	56.2 µM (inactive)	37.1 µM (inactive)	45.3 µM (inactive)	18.4 µM (inactive)	39.5 µM (inactive)	47.5 µM (inactive)	32 µM (inactive)	32 µM (inactive)	57.4 µM (inactive)		
CC1=C(C(=O)OCCc2ccc([N+](=O)[O-])cc2)C(c2cccc([N+](=O)[O-])c2)C(C(=O)OC(C)C)=C(C)N1 (stereo not drawn)	75.9 µM (inactive)	2.94 µM (inactive)	5.55 µM (inactive)	4.82 µM (inactive)	> 100 µM (inactive)	4.88 µM (inactive)		2.63 µM (inactive)	4.3 µM (inactive)	7.59 µM (inactive)	3.69 µM (inactive)	4.19 µM (inactive)		5.81 µM (inactive)	6.49 µM (inactive)	2.62 µM (inactive)	> 100 µM (inactive)	11.8 µM (inactive)	2.86 µM (inactive)	12.7 µM (inactive)
CC1(C)OC(=O)C(C)(C)C(=O)O1	> 100 µM (inactive)	> 100 µM (inactive)	> 100 µM (inactive)	> 100 µM (inactive)	> 100 µM (inactive)	> 100 µM (inactive)		> 100 µM (inactive)	> 100 µM (inactive)		> 100 µM (inactive)	> 100 µM (inactive)		> 100 µM (inactive)	> 100 µM (inactive)	> 100 µM (inactive)	> 100 µM (inactive)	> 100 µM (inactive)	> 100 µM (inactive)	> 100 µM (inactive)
CCCCCCc1cc(C=O)sc1-c1ccc(-c2sc(-c3ccc(-c4ccc(-c5cc(CCCCCC)c(-c6ccc(-c7sc(C=O)cc7CCCCCC)s6)s5)s4)s3)cc2CCCCCC)s1	> 100 µM (inactive)	> 100 µM (inactive)	> 100 µM (inactive)	> 100 µM (inactive)	> 100 µM (inactive)	> 100 µM (inactive)	> 100 µM (inactive)	> 100 µM (inactive)	> 100 µM (inactive)	> 100 µM (inactive)	> 100 µM (inactive)	> 100 µM (inactive)	> 100 µM (inactive)	> 100 µM (inactive)	> 100 µM (inactive)	> 100 µM (inactive)	> 100 µM (inactive)	> 100 µM (inactive)		> 100 µM (inactive)
Cn1c2ccccc2c2c3c(c4c5ccccc5n(C)c4c21)C(=O)N(c1ccccc1)C3=O	> 100 µM (inactive)	> 100 µM (inactive)	> 100 µM (inactive)	> 100 µM (inactive)	> 100 µM (inactive)	> 100 µM (inactive)	> 100 µM (inactive)	> 100 µM (inactive)	> 100 µM (inactive)	> 100 µM (inactive)	> 100 µM (inactive)	> 100 µM (inactive)	> 100 µM (inactive)	> 100 µM (inactive)	> 100 µM (inactive)	> 100 µM (inactive)	> 100 µM (inactive)	> 100 µM (inactive)		> 100 µM (inactive)
CC(=O)OCC(=O)[C@@]12OC(C)(C)O[C@@H]1C[C@H]1[C@@H]3CC=C4C[C@@H](O)CC[C@]4(C)[C@H]3CC[C@@]12C		31.6 µM (inactive)	32.2 µM (inactive)	92.9 µM (inactive)	> 100 µM (inactive)	36.7 µM (inactive)		> 100 µM (inactive)	57.7 µM (inactive)	> 100 µM (inactive)	68.1 µM (inactive)	33.1 µM (inactive)	32.1 µM (inactive)	> 100 µM (inactive)	41.4 µM (inactive)	> 100 µM (inactive)	30.8 µM (inactive)	43.9 µM (inactive)	22.4 µM (inactive)	39.9 µM (inactive)
COC(=O)C(C)(C)OCc1ccc(C2NC(=O)N(c3cccc(Cl)c3)C(=O)N2c2cccc(Cl)c2)cc1 (stereo not drawn)	40.6 µM (inactive)	51.1 µM (inactive)	99.8 µM (inactive)	47.9 µM (inactive)	57.5 µM (inactive)	32.6 µM (inactive)	15.1 µM (inactive)	8.07 µM (inactive)	1.26 µM (inactive)	56.2 µM (inactive)	36.6 µM (inactive)	31 µM (inactive)		28.6 µM (inactive)	40.9 µM (inactive)	10.7 µM (inactive)	50.1 µM (inactive)	29.2 µM (inactive)	3.96 µM (inactive)	> 100 µM (inactive)
CC(=O)/N=C1\NC(=O)/C(=C/c2ccc(/C=C3/C(=O)N/C(=N\C(C)=O)N3C)cc2)N1C	> 100 µM (inactive)	> 100 µM (inactive)	> 100 µM (inactive)	> 100 µM (inactive)	> 100 µM (inactive)	> 100 µM (inactive)	> 100 µM (inactive)	> 100 µM (inactive)	> 100 µM (inactive)	> 100 µM (inactive)	> 100 µM (inactive)	> 100 µM (inactive)	> 100 µM (inactive)	> 100 µM (inactive)	> 100 µM (inactive)	> 100 µM (inactive)	> 100 µM (inactive)	> 100 µM (inactive)		> 100 µM (inactive)
CC[C@]12C=CCN3CC[C@@]4(c5cc(Br)c(OC)cc5N(C)[C@H]4[C@@](O)(C(=O)NC(Cc4c[nH]c5ccccc45)C(=O)OC)[C@@H]1O)[C@@H]32 (stereo partly drawn)		7.94 µM (inactive)	12.6 µM (inactive)	17.5 µM (inactive)	20.5 µM (inactive)	6.59 µM (inactive)	22.3 µM (inactive)	2.87 µM (inactive)	45.1 µM (inactive)	9.16 µM (inactive)	7.08 µM (inactive)	9.46 µM (inactive)		3.46 µM (inactive)	45.5 µM (inactive)	7.31 µM (inactive)	16.4 µM (inactive)	29.4 µM (inactive)	58.3 µM (inactive)	33.2 µM (inactive)
CCOC(=O)CNC(=O)C(CSC(=O)N(O)c1ccc(Cl)cc1)NC(=O)CCC(N)C(=O)OCC (stereo not drawn)	4.75 µM (inactive)	> 50 µM (inactive)	24.3 µM (inactive)	> 50 µM (inactive)		> 50 µM (inactive)	3.98 µM (inactive)	19.3 µM (inactive)	> 50 µM (inactive)	> 50 µM (inactive)	> 50 µM (inactive)	> 50 µM (inactive)		> 50 µM (inactive)	> 50 µM (inactive)	> 50 µM (inactive)	> 50 µM (inactive)	> 50 µM (inactive)	1.9 µM (inactive)	9.53 µM (inactive)
